Legend:
[1] = system: Conyza bonariensis paraquat sensitive (low herbicide requiring) biotype; test: Malonyldialdehyde in tissue (lipoxidation, membrane damage) after spraying; format: in vivo; details: for membrane damage (malonyldialdehyde release): DDC 0.5% where added, low herbicide requiring biotype, untreated control = 100; for malonyldialdehyde in tissue (% untreated control): sensitive biotype
Procedure: (§1) Seeds of two biotypes of Conyza bonariensis (L.) Cronq. (synonym C. linifolia) were obtained from Egypt. The paraquat sensitive biotype was gathered near Alexendria and seeds of the resistant type from the Tahrir irrigation district. They were obtained from Dr. Martin Parham in England. Seeds were germinated in a growth room with a 14 h light period at 25° C. Plants were transferred out of doors 24 h before being sprayed. The phytotoxicity of three herbicides representative of the three different modes of generating active oxygen species known at present. Commercial paraquat (Gramoxone-ICI Plant Protection Ltd) was formulated with 0.1% (w/v) Tween-20 (a non-ionic surfactant) for spraying. The response to the range of 10^-5 M to 10^-2 M paraquat was measured by spraying two plants per concentration to run-off in the early morning. All plants were exposed to sunlight for at least 13 h (1300 μE.m^-2s^-1 photosynthetically active radiation (PAR) at mid day). Commercial acifluorfen (Blazer, Rohm, and Hass, Philadelphia, Pa., USA) to which was added 0.25% Tween-20 was sprayed to run-off. The response to spraying was measured as with paraquat 24 h after spraying. Commercial atrazine (Atranex 50 WP-Agan) was sprayed at various rates in 0.25% Tween 20 to run off. Fully expanded, 8 to 10 cm long leaves from plants in the rosette stage were used in all experiments. Phytotoxicity of acifluorfen and paraquat was measured as CO2 fixation 24 h later as follows: Detached leaves were placed on wet filter paper in a sealed chamber with 5μ Ci^14 C-sodium bicarbonate. Tartaric acid was remotely dripped on the sodium bicarbonate to release ^14 CO2. Leaves were illuminated with […] (PAR) for 30 min. Eighty percent acetone was added and the mixture put under strong light to photobleach pigments and evaporate the acetone. A scintillation mixture of Lumax:xylene (45:55) was added to the leaves and remaining water. The samples were counted and the data expressed as DPM.cm^-2. Area was measured with a planimeter from photocopies of the leaves made prior to photosynthesis measurements. Phytotoxicity of atrazine was measured as the elevated level of malonyldialdehyde in the tissue. Malonyldialdehyde (as measured with thiobarbituric acid according to Dodge and Gillham (Asp. Appl. Biol 11 97 (1986)) is a measurement of lipoxidation of unsaturated fatty acids, and provides an excellent estimation of damage by active oxygen species.
(§2) ^b membrane damage was measured as malonyldialdehyde release
(§3) Similarly, both the paraquat resistant and sensitive biotypes of Conyza bonariensis were treated with two other oxidant generating herbicides. Atrazine (of the triazine group) is the most widely used oxidant generating herbicides in agriculture. We used various dilutions of a commercial wettable powder (Atranex 50WP-Agan Chemicals) to which we added 0.5% DDC. The effects were scored 24 h later. […] We also tested to see whether acifluorfen, a nitro diphenyl ether herbicide would be synergized. It is generally agreed that light and oxygen are required for its action via oxidant damage. We sprayed a commercial formulation of acifluorfen (Blazer, Rohm and Haas) to which were added 0.25% Tween-20 detergent, with and without DDC. The effects were scored 24 h later.

[2] = system: Conyza bonariensis paraquat tolerant (high herbicide requiring) biotype; test: as above; format: in vivo; details: for membrane damage (malonyldialdehyde release): DDC 0.5% where added, high herbicide requiring biotype, untreated control = 100; for malonyldialdehyde in tissue (% untreated control): tolerant biotype
Procedure: as §1, §2, §3

[3] = system: isolated Asparagus sprengeri cells; test: Chlorophyll loss in isolated cells (synergism at the cellular level); format: cell-based; details: for % of control chlorophyll: DDC 0.02% where added, 40 h, low light 305 μEin m^-2 s^-1; for chlorophyll remaining - % of control: paraquat 0 μM, 14 h, 1000 μEin m^-2 s^-1
Procedure: Isolated cells offer an excellent rapid method of screening for phytotoxicity using a large number of potential chelators and synergists. Asparagus sprengeri cells were isolated from cladophylls of field grown plants using the procedure of Colman et al. (Can. J. Botany 57 1505, (1979)) except that the isolation, washing and culture buffer was 50 mM HEPES brought to pH 7.2 with KOH. The cladophylls were surface sterilized using 80% aqueous ethanol. After three centrifugations to remove broken cells, the cells were diluted to 10% packed volume and 0.75 ml were placed in each well of cluster dishes. The potential synergists in this example 0.02% w/v final concentration diethyldithiocarbamate (DDC) and an oxime of 4-octyl-2-acetyl-phenol (U.S. Pat. No. 4,215,219) which complex primarily with copper and di-2-ethylhexyl-phosphoric acid which complexes primarily with zinc (Flett, Chem and Ind. 17 706, (1977)) was placed with the herbicides atrazine and paraquat. All additions were made at 100 fold the final concentration of herbicide and synergist. Paraquat was dissolved in water and atrazine in methanol. The cluster dishes were incubated on a reciprocal shaker with a clear plastic bottom and illuminated from top and bottom with fluorescent lights emitting 135 μEin.m^-2 s^-1 (top) and 170 μEin.m^-2 s^-1 (bottom). The cells were kept mixed by the shaker and incubation was at room temperature. Incubation was stopped when there was visually obvious loss of chlorophyll due to treatments in a given experiment. The cells were removed to glass centrifugation tubes, centrifuged and the supernatant removed. One ml of 80% aqueous acetone was added to extract chlorophyll, the debris were sedimented by centrifugation and chlorophyll was spectrophotometrically determined at 645 and 663 nm according to Arnon (Plant Physiology 24 1, (1949)). […] In another experiment, a larger variety of chelating synergists and oxidant generating herbicides were used, and light was given at a much higher intensity 1000 μEin m^-2 s^-1 to better approach natural sunlight which is at 1200-1500 […].
Paraquat toxicity was measured 24 h after treatment and atrazine toxicity was measured 40 h after treatment.
Paraquat toxicity was measured 14 h after treatment.

[4] = system: Conyza bonariensis high herbicide requiring biotype; test: Whole plant spray, visual rating; format: in vivo; details: DDC 0.5% where added, high herbicide requiring biotype; for visual ratings: scored one day after treatment
Source text: (§4) Seeds of Conyza bonariensis were germinated and plants cultivated as outlined in Example 1. Other species were germinated in a similar mixture and treated at 10 days.
(§5) The commercial fungicides, maneb [manganese ethylene-bis(dithiocarbamate) (polymeric)] and zineb [zinc ethylene-bis (dithiocarbamate) (polymeric)] were used, they have similar structures and effects as DDC, but are blocked and act as chelate controls […] to clarify that a synergism would be due to the chelating effect of diethyldithiocarbamate. […] They could not chelate copper due to their being blocked.
(§6) ^a visual ratings (scored 1 day after treatment): 0 no damage to
(§7) slight burn; 1 moderate burn (may regenerate); 2 severe burn (will die)
as §3

[5] = system: Conyza bonariensis low herbicide requiring biotype; test: Whole plant spray, visual rating; format: in vivo; details: DDC 0.5% where added, scored one day after treatment
Source text: as §4, §5, §6, §7, §3

[6] = system: leaves; test: Blocked chelate controls tested for synergism with paraquat; format: in vivo
Source text: as §5

[7] = system: Conyza bonariensis paraquat sensitive biotype; test: Phytotoxicity measured as 14CO2 fixation 24 h after spraying; format: in vivo; details: sensitive biotype
Procedure: as §1

[8] = system: Conyza bonariensis paraquat tolerant biotype; test: as above; format: in vivo; details: tolerant biotype
Procedure: as §1

[9] = system: Conyza bonariensis low herbicide requiring biotype; test: Photosynthesis (14CO2 fixation) of leaf discs removed 5 h after spray treatment; format: in vivo; details: foliar, DDC 0.5% where added, leaf discs removed 5 h after treatment, untreated control = 100
Procedure: as §3
^b photosynthesis (^14 CO2 fixation) was used as an
additional measurement of phytotoxicity. Leaf discs were removed 5 h afte
treatment for measurement

[10] = system: bean leaf discs; test: Bean leaf disc bleaching assay; format: cell-based; details: 5 h at 450 μEin.m^-2 s^-1
Procedure: We used this bean leaf disc system to ascertain the potential of chelators to synergize a large variety of phytotoxicants purported to act by generating active oxygen species in the light.
Bean discs were incubated on solutions containing the above mixtures for 5 h at 450 μEin.m^-2 s^-1 and the chlorophyll remaining in the leaves was assayed.

[11] = atrazine 20 μM spray to run off
[12] = atrazine 40 μM spray to run off
[13] = atrazine molar conc. 1.0 × 10^-2
[14] = atrazine molar conc. 1.5 (× 10^-2)
[15] = atrazine molar conc. 2.0 (× 10^-2)
[16] = atrazine molar conc. 3.0 (× 10^-2)
[17] = atrazine molar conc. 4.0 (× 10^-2)
[18] = atrazine molar conc. 5.0 (× 10^-2)
[19] = atrazine 15 μM spray to run off
[20] = atrazine 30 μM spray to run off
[21] = herbicide molar conc. 3.2 × 10^-3

## CCNc1nc(Cl)nc(NC(C)C)n1 [atrazine]
[1]; [11]
  membrane damage (malonyldialdehyde release): 130
[1]; [12]
  membrane damage (malonyldialdehyde release): 225
[1]; [13]
  malonyldialdehyde in tissue (% untreated control): 100 % untreated control
[1]; [14]
  malonyldialdehyde in tissue (% untreated control): 135 % untreated control
[1]; [15]
  malonyldialdehyde in tissue (% untreated control): 130 % untreated control
[1]; [16]
  malonyldialdehyde in tissue (% untreated control): 155 % untreated control
[1]; [17]
  malonyldialdehyde in tissue (% untreated control): 225 % untreated control
[1]; [18]
  malonyldialdehyde in tissue (% untreated control): 320 % untreated control
[2]; [11]
  membrane damage (malonyldialdehyde release): 100
[2]; [12]
  membrane damage (malonyldialdehyde release): 100
[2]; [13]
  malonyldialdehyde in tissue (% untreated control): 100 % untreated control
[2]; [14]
  malonyldialdehyde in tissue (% untreated control): 100 % untreated control
[2]; [15]
  malonyldialdehyde in tissue (% untreated control): 100 % untreated control
[2]; [16]
  malonyldialdehyde in tissue (% untreated control): 100 % untreated control
[2]; [17]
  malonyldialdehyde in tissue (% untreated control): 100 % untreated control
[2]; [18]
  malonyldialdehyde in tissue (% untreated control): 125 % untreated control
[3]; atrazine 3 × 10^-6 M, 3 µM
  % of control chlorophyll: 95 % of control
[3]; atrazine 10^-5, 10 µM
  % of control chlorophyll: 92 % of control
[4]; [19]
  visual ratings: 1.7
[4]; [20]
  visual ratings: 1.7
[5]; [19]
  visual ratings: 2.1
[5]; [20]
  visual ratings: 2.3

## manganese ethylene-bis(dithiocarbamate) (polymeric) [maneb]
[6]
  synergistic effects with paraquat: Neither maneb nor zineb had synergistic effects with paraquat

## NCCNCCNCCNCCN [Tetraethylene-pentamine, tetraethylene pentamine]
[3]; chelator alone 0.025%
  chlorophyll remaining - % of control: 99 % of control

## O=C(O)c1cc(Oc2ccc(C(F)(F)F)cc2Cl)ccc1[N+](=O)[O-] [acifluorfen]
[7]; [21]
  % photosynthesis inhibition: 72%
[7]; herbicide molar conc. 3.2 × 10^-4
  % photosynthesis inhibition: 40%
[7]; herbicide molar conc. 10^-2
  % photosynthesis inhibition: 98%
[7]; herbicide molar conc. 10^-3
  % photosynthesis inhibition: 58%
[7]; herbicide molar conc. 10^-4
  % photosynthesis inhibition: 23%
[8]; [21]
  % photosynthesis inhibition: 67%
[8]; herbicide molar conc. 10^-2
  % photosynthesis inhibition: 99%
[8]; herbicide molar conc. 10^-3
  % photosynthesis inhibition: 21%
[4]; acifluorfen 100 μM spray to runoff, scored 24 h after treatment
  visual rating: 2.5
[9]; acifluorfen 3 μM spray to runoff
  activity at 3 µM: 75%
[9]; acifluorfen 100 μM spray to runoff
  activity at 100 µM: 10%
[10]; acifluorfen 3 μM, chelator 0.01% w/v where added
  chlorophyll - % of control: 91 % of control

## CCCCC(CC)COP(=O)(O)OCC(CC)CCCC (centres unmarked) [di-2-ethyl-hexyl-phosphoric acid, Di-2-ethyl-hexyl phosphoric acid]
[3]; chelator alone 0.001%
  chlorophyll remaining - % of control: 98 % of control
[10]; acifluorfen 0 μM, chelator alone 0.01% w/v
  chlorophyll - % of control: 98 % of control
[10]; acifluorfen 0 μM, chelator alone 0.02% w/v
  chlorophyll - % of control: 91 % of control
[10]; paraquat 0 μM, chelator alone 0.01% w/v
  chlorophyll - % of control: 98 % of control

## NCCNCCNCCN [Triethylene-tetramine]
[3]; chelator alone 0.008%
  chlorophyll remaining - % of control: 90 % of control

## CCCCCCCCc1ccc(O)c(C(C)=NO)c1 [4-Octyl-2-acetyl-phenol oxime, oxime of 4-octyl-2-acetyl-phenol]
[3]; chelator alone 0.125%
  chlorophyll remaining - % of control: 96 % of control

## O=C(O)c1cccc(C(=O)O)n1 [Pyridine-2,6-dicarboxylic acid]
[3]; chelator alone 0.005%
  chlorophyll remaining - % of control: 100 % of control

## zinc ethylene-bis (dithiocarbamate) (polymeric) [zineb]
[6]
  synergistic effects with paraquat: Neither maneb nor zineb had synergistic effects with paraquat

From patent publication US5219825A, “Synergistic herbicidal compositions comprising herbicides which generate toxic oxygen radicals and chelating agents which inhibit their detoxification” (Yeda Research and Development Co., Ltd., priority 1986, dated 1993)
